In series [1] the test system is U87 cells. As to the kind of experiment: Cell viability (AlamarBlue), U87 glioblastoma cells. The format is cell-based, human. The settings on record: 72 hours of treatment. The essentials: (§1)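 Following a 72-hour incubation with escalating compound doses, applied one day after seeding, AlamarBlue fluorescence gave viability relative to untreated cells, from which half-maximal effective concentrations were calculated.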
In general terms: Resazurin is reduced to fluorescent resorufin, in cell work by metabolically active cells.

Series [2] has as its system LNCaP cells. Nature of the series: Cell viability (AlamarBlue), LNCaP prostate cancer cells. The class given is cell-based, human. As to conditions: Homo sapiens, LNCaP, 72 h, 72 hours of treatment. The essentials: as §1
For series [3], the system named is RWPE1 cells. As to the kind of experiment: Cell viability (AlamarBlue), RWPE1 normal prostate cells. The class given is cell-based, human. More on the design: key to EC50 (μM) in RWPE1 cells: Inactive: less than 50% inhibition at the highest concentration tested at 50 μM. As to conditions: 72 hours of treatment, normal prostate cell line. The essentials: as §1
In series [4] the test system is MCF7 cells. Nature of the series: Cell viability (AlamarBlue), MCF7 breast cancer cells. The format is cell-based. As to conditions: Homo sapiens, 72 hours of treatment. As to the method:
(§2) In another exemplary method, half maximal effective concentration (EC50) was determined for some compounds and their isomers as disclosed herein in a variety of human cancer cell lines. In brief, cells from two prostate cancer cell lines (LNCaP, 22RV1), one glioblastoma cell line (U87), one breast cancer cell line (MCF7), a glioma cell line (LN18), a normal prostate cell line (RWPE1), and a glioblastoma cell line (T98G) were plated in a multi-well plate. After 24 hours, one of the compounds herein was added to the well at increasing concentrations. After 72 hours of treatment, cell viability was assessed using AlamrBlue® (Invitrogen) and fluorescence was read using the CLARIOstar Plus Multilabel Plate Reader (BMG Labtech). Samples were normalized to no treatment controls. EC50 values were determined using GraphPad Prism.

Series [5] can be described thus: Plasma and brain tissue levels after oral dose, brain tumor xenograft mice. The settings on record: CrTac:NCr-Foxn1nu athymic nude, single oral dose 100 mg/kg. The format is in vivo, CrTac:NCr-Foxn1nu athymic nude mouse. As for the experimental part:
In another exemplary method, levels of Compound 19A were determined in plasma and brain tissue following administration. For these studies, a CrTac:NCr-Foxn1^nu athymic nude mouse strain was used as an acceptable mouse model. For these experiments, CrTac:NCr-Foxn1^nu athymic nude mouse received […] of tumors implanted into the brain tissues. Compound 19A was then administered to the mice orally as a homogenous suspension in DMSO: (PEG 400: PVP=95:5)=1:4. A single dose of 100 mg/kg of Compound 19A was administered in this manner. Concentrations of the Compound 19A in plasma and brain tissue (after extraction) were measured using HPLC-MS quantitation.
FIG. 51 and Table 8 illustrate increasing concentrations of Compound 19A in both the left, healthy brain tissue and the right experimental brain tissue containing tumor as well as in plasma over time.

The subject of series [6] is 22RV1 cells. Nature of the series: Cell viability (AlamarBlue), 22RV1 prostate cancer cells. As to conditions: 72 hours of treatment. The format is cell-based, human. The essentials:
as §1

The test system of series [7] is LN18 glioblastoma cancer cells. Nature of the series: Combination with Temozolomide, Bliss synergy in LN18 cells. The format is cell-based. The settings on record: Temozolomide 0 to 1000 uM, compound 0.625 to 10 uM. As to the method:
Synergy was calculated with the Bliss independence model. Compounds were combined at concentrations of 0 to 1000 uM for Temozolomide and 0.625 to 10 uM for compounds 19 and 59.

The test system of series [8] is 22Rv1 prostate cancer cells. As to the kind of experiment: Combination with Rabusertib, Bliss synergy in 22Rv1 cells. The format is cell-based. The settings on record: Rabusertib 0 to 30 uM, compound 0.625 to 5 uM. As to the method:
Synergy was calculated with the Bliss independence model. Compounds were combined at concentrations of 0 to 30 uM for Rabusertib and 0.625 to 5 uM for compounds 73 and 76.

The subject of series [9] is LN18 cells. Nature of the series: Cell viability (AlamarBlue), LN18 glioma cells. The settings on record: Homo sapiens, LN-18, 72 hours of treatment. The format is cell-based. As to the method: as §2
In series [10] the test system is tubulin. As to the kind of experiment: Tubulin polymerization assay. The format is biochemical. The settings on record: 5 uM (FIG. 41A, 41C) or 1 uM (FIG. 41B). As for the experimental part:
FIG. 41A-41C represent exemplary experiments illustrating inhibition of tubulin polymerization. FIG. 41A illustrates effects of compounds 19, 73, 86, 93 and 94 at 5 uM concentration. FIG. 41B illustrates effects of compounds 93, 94, 95 and 96 at 1 uM concentration.
FIG. 41C illustrates effects of compounds 73, 86, 87 and 88 at 5 uM concentration in accordance with certain embodiments of the present disclosure. Colchicine and vincristine are positive controls.
FIG. 42A-42B represent exemplary experiments illustrating inhibition of tubulin polymerization. FIG. 42A illustrates effects of compound 19 at 0.3, 1, 3 and 6 uM concentrations.
FIG. 42B illustrates effects of compound 73 at […] concentration in accordance with certain embodiments of the present disclosure. Colchicine and nocodazole are positive controls.
In another exemplary method, the effect of the compounds herein on tubulin polymerization was determined. FIG. 41A illustrates effects of compounds 19, 73, 86, 93 and 94 at 5 uM concentration, FIG. 41B illustrates effects of compounds 93, 94, 95 and 96 at 1 uM concentration, or FIG. 41C illustrates effects of compounds 87 and 88 at 5 uM concentration in accordance with certain embodiments of the present disclosure. Colchicine and vincristine are positive controls.
The dose dependent effect of compounds 19 and 73 on tubulin polymerization was also determined. FIG. 42A illustrates effects of compound 19 at 0.3, 1, 3 and 6 uM concentrations, and FIG. 42B illustrates effects of compound 73 at 0.1, 0.3, 1, 3 and 5 uM concentration in accordance with certain embodiments of the present disclosure. Colchicine and nocodazole are positive controls.

A short description of series [11]: Kinetic solubility in aqueous PBS buffer (HPLC-MS). The format is physicochemical. The settings on record: kinetic from dmso stock, DMSO stock mixed with aqueous PBS buffer, filtered, read-out: Kinetic Solubility. The essentials: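 A concentrated DMSO stock was mixed with aqueous PBS buffer and filtered. The filtrate was quantified against an HPLC-MS calibration curve.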

The test system of series [12] is T98G cells. Nature of the series: Cell viability (AlamarBlue), T98G glioblastoma cells. The class given is cell-based. As to conditions: Homo sapiens, 72 hours of treatment. As for the experimental part:
as §2

[13] abbreviates: mouse, brain tissue (left, healthy), read-out: Brain Tissue Healthy, Left concentration.
Setting [14] is: mouse, brain tissue (right, containing tumor), read-out: Brain Tissue Tumor, right concentration.
Setting [15] is: plasma, tumor-bearing nude mouse, read-out: Plasma concentration.

Converted amounts (≈) assume the structure as drawn. Like-named read-outs stand apart in the source and are kept apart here.

A word on the EC50: it is the concentration at which the effect is half-maximal. As for `COC1CC(C(=O)NC(=O)Nc2ccc(Oc3ccc(Cl)cn3)c(C)c2)C1` (single isomer, unassigned) [Compound 19A, 1-{4-[(5-chloropyridin-2-yl)oxy]-3-methylphenyl}-3-(3-methoxycyclobutanecarbonyl) urea], the EC50 in series [1] was determined as 2.2 µM; in series [2] it was 0.87 µM; in [4] it was 2.8 µM; in series [6], 0.95 µM. Moreover, the “EC50 (μM) in RWPE1 cells” value in series [3] is “Inactive”. Further, the figures for the concentration at 0.5 h in [5] (setting [13]), in series [5] (setting [14]) and in series [5] (setting [15]) were 767 ng/g, 828 ng/g and 973 ng/mL, respectively. The concentration at 1 h came to 1230 ng/g in series [5] (setting [13]), 1460 ng/g in series [5] (setting [14]) and 1340 ng/mL in series [5] (setting [15]). Also, the concentration at 6 h in series [5] (setting [13]) came out at 1460 ng/g; in series [5] (setting [14]), 1520 ng/g; in series [5] (setting [15]) it was 1510 ng/mL.

For the molecule `COC1CC(C(=O)NC(=O)Nc2ccc(Oc3nc(C)c(C)s3)c(C)c2)C1` (centres unmarked) [Compound 59, N-((4-((4,5-dimethylthiazol-2-yl)oxy)-3-methylphenyl)carbamoyl)-3-methoxycyclobutane-1-carboxamide], the EC50 in series [1] (Homo sapiens, U-87 MG, 72 h) stood at 0.002 µM; in series [2], 0.27 µM; in series [6] (Homo sapiens, 22Rv1, 72 h), 0.08 µM. Also, in [7] (LN18 cells, Bliss independence model), the “Bliss Synergy value, combination with Temozolomide” value turned out to be 20.0. Moreover, the “effect of combination with Temozolomide on cancer cell viability” value in [7] was “synergistic decrease in cancer cell viability”.

Turning to `COC1CC(C(=O)NC(=O)Nc2cc(C)c(Oc3ccc(Cl)cn3)c(F)c2)C1` (centres unmarked) [Compound 76, N-((4-((5-chloropyridin-2-yl)oxy)-3-fluoro-5-methylphenyl)carbamoyl)-3-methoxycyclobutane-1-carboxamide], the EC50 in series [1] (Homo sapiens, U-87 MG, 72 h) was 0.1 µM. The “Bliss Synergy value, combination with Rabusertib” value in series [8] (22Rv1 cells, Bliss independence model) came to 15.3. Further, the “effect of combination with Rabusertib on cancer cell viability” value in series [8] was “synergistic decrease in cancer cell viability”.

`COC12CC(C(=O)NC(=O)Nc3ccc(Oc4ccc(Cl)cn4)c(C)c3)(C1)C2` [Compound 84, N-((4-((5-chloropyridin-2-yl)oxy)-3-methylphenyl)carbamoyl)-3-methoxybicyclo[1.1.1]pentane-1-carboxamide]: the EC50 in [1] (Homo sapiens, U-87 MG, 72 h) was found to be 0.16 µM; in series [9] it was 0.01 µM.

`COC12CC(C(=O)NC(=O)Nc3ccc(Oc4ccccn4)c(C)c3)(C1)C2` [Compound 86, 3-methoxy-N-((3-methyl-4-(pyridin-2-yloxy)phenyl)carbamoyl)bicyclo[1.1.1]pentane-1-carboxamide]: the EC50 in [1] (Homo sapiens, U-87 MG, 72 h) stood at 0.26 µM. For the same molecule, the “effect on tubulin polymerization” value in series [10] was “significantly inhibit tubulin polymerization”.

The kinetic solubility is the concentration staying in solution when a stock, usually in DMSO, is diluted into the medium. For the molecule `COC12CC(C(=O)NC(=O)Nc3ccc(Oc4ncccn4)c(C)c3)(C1)C2` [Compound 87, 3-methoxy-N-((3-methyl-4-(pyrimidin-2-yloxy)phenyl)carbamoyl)bicyclo[1.1.1]pentane-1-carboxamide], the concentration for a half-maximal effect (EC50) in [1] (Homo sapiens, U-87 MG, 72 h) was determined as 1.2 µM. Further, the “effect on tubulin polymerization” value in series [10] is given as “significantly inhibit tubulin polymerization”. In addition, in [11], the kinetic solubility came out at 27.5 µM (≈ 10.1 µg/mL).

As to `COC12CC(C(=O)NC(=O)Nc3ccc(Oc4ncc(F)cn4)c(C)c3)(C1)C2` [Compound 88, N-((4-((5-fluoropyrimidin-2-yl)oxy)-3-methylphenyl)carbamoyl)-3-methoxybicyclo[1.1.1]pentane-1-carboxamide], in series [1] (Homo sapiens, U-87 MG, 72 h), the EC50 stood at 1.45 µM. In addition, the “effect on tubulin polymerization” value in series [10] is “significantly inhibit tubulin polymerization”. The solubility (kinetic) in series [11] is 10.9 µM (≈ 4.21 µg/mL).

As to `COC12CC(C(=O)NC(=O)Nc3cc(C)c(Oc4ccc(F)cn4)c(F)c3)(C1)C2` [Compound 91, N-((3-fluoro-4-((5-fluoropyridin-2-yl)oxy)-5-methylphenyl)carbamoyl)-3-methoxybicyclo[1.1.1]pentane-1-carboxamide], the EC50 was 0.63 µM in series [1] (Homo sapiens, U-87 MG, 72 h); 0.167 µM in series [12]; 0.087 µM in series [9].

Regarding `COC1CC(C(=O)NC(=O)Nc2ccc(C)c(Oc3ccccn3)c2)C1` (centres unmarked) [Compound 94, 3-methoxy-N-((4-methyl-3-(pyridin-2-yloxy)phenyl)carbamoyl)cyclobutane-1-carboxamide], in [1] (Homo sapiens, U-87 MG, 72 h), a half-maximal response (EC50) required 0.045 µM. In addition, the “effect on tubulin polymerization” value in series [10] is given as “significantly inhibit tubulin polymerization”. Further, the solubility (kinetic) in series [11] was determined as 11.8 µM (≈ 4.19 µg/mL).

In [1] (Homo sapiens, U-87 MG, 72 h), `COC1CC(C(=O)NC(=O)Nc2ccc(C)c(Oc3ccc(F)cn3)c2)C1` (centres unmarked) [Compound 95, N-((3-((5-fluoropyridin-2-yl)oxy)-4-methylphenyl)carbamoyl)-3-methoxycyclobutane-1-carboxamide] yielded an EC50 of 0.014 µM. For the same molecule, the “effect on tubulin polymerization” value in series [10] is reported as “significantly inhibit tubulin polymerization”. In addition, the kinetic solubility in [11] turned out to be 7.2 µM (≈ 2.69 µg/mL).

Molecule `COC1CC(C(=O)NC(=O)Nc2ccc(C)c(Oc3ncccn3)c2)C1` (centres unmarked) [Compound 96, 3-methoxy-N-((4-methyl-3-(pyrimidin-2-yloxy)phenyl)carbamoyl)cyclobutane-1-carboxamide] came in with an EC50 in series [1] (Homo sapiens, U-87 MG, 72 h) of 0.035 µM. The “effect on tubulin polymerization” value in [10] is listed as “significantly inhibit tubulin polymerization”. For the same molecule, the solubility (kinetic) in series [11] was 14.8 µM (≈ 5.27 µg/mL).

These data come from patent US12404242B2, “Compositions and methods for making and using small molecules in the treatment of cancer” (Reglagene, Inc., priority 2021, dated 2025).
